Source: patent US8269022B2, “Polymorphs of enantiopure erdosteine” (Edmond Pharma S.R.L, priority 2007, dated 2012)

Tests used:
[1] = Flowability test (flow through the funnel); format: physicochemical; settings: for Flowing time (mean value): flowability comparison, powder
Description: These advantages will be clearer by considering the following comparison between Form I of S-Erdosteine and the amorphous racemic form. […] Conversely, Form I has a mean flowing time of about 35 seconds, which allows to handle and transfer the powder more easily, and to avoid the use or reduce the amount of glidants in the finished pharmaceutical formulation.

[2] = Dissolution rate test (Intrinsic Dissolution Rate) of 150 mg tablets in 0.1M hydrochloric acid; format: physicochemical; settings: FIG. 10
Protocol: A dissolution rate test was performed in order to define the Intrinsic Dissolution Rate of Erdosteine Form I and Racemic Erdosteine. Six thin 150 mg tablets of S-erdosteine Form I and six 150 mg tablets of racemic Erdosteine were prepared by compression with a 10 ton press and their dissolution profile in 0.1M hydrochloric acid was evaluated. The two profiles are reported in FIG. 10, superimposed on the same graph. As can be clearly seen, the dissolution profile of Form I is very different from that of racemic, non-polymorphic Erdosteine. In fact, after 15 minutes more than 80% Form I is dissolved, while more that 25 minutes are necessary to dissolve 40% racemic Erdosteine. The higher solubility of Form I allows to obtain an improved pharmaceutical form in terms of dosage and bioavailability.

SMILES	Flowing time (mean value) [1]	flowability (flow through the funnel) ([1]; result in words)	time necessary to dissolve 40% [2] [min]	mean flowing time ([1]; powder through the funnel)	amount dissolved ([2]; after 15 minutes)
O=C(O)CSCC(=O)NC1CCSC1=O (racemic) [Racemic Erdosteine]	∞	does not flow through the funnel	> 25	–	–
O=C(O)CSCC(=O)NC1CCSC1=O (stereo not drawn) [Erdosteine Form I]	35.6″	–	–	about 35 seconds	more than 80%
